Where two headings read alike, the source gives them in different places.
Key:
b-glucuronidase = molecular target: T1, b-glucuronidase (Escherichia coli, UniProt P05804); assay: Prodrug conversion in flow by biocatalytic LbL films in perfusion chambers (FIG. 23); assay type: biochemical; conditions: constant flow
T1 construct: purchased
Experimental: For evaluation of the enzymatic activity the prodrug fluorescein di-glucuronide, FdG, of 5 μg/mL was added to syringes and connected to the coated perfusion chambers. A syringe pump was used to control the shear stress using 0.15, 0.074, 0.03 dyn/cm^2. An “on demand” conversion of prodrug under flow conditions a syringe with buffer was used as a control. The “on” and “off” was then controlled by the switch of syringes to the given μ-slide chamber.
For multiple layers of enzyme the PEMs were constructed as (PMA/PLL)4 keeping the total amount of layers constant and adding the enzyme in between each layer of PLL.
All evaluations were measured out on the PlateReader by collecting aliquots from the outlet tubing during the experiment and transferred to a 96-well pate.
A unique opportunity associated with multilayered surface coatings relates to the possibility to build films with a desired thickness for which polymer adsorption can be performed to a desired number of layers. Similarly, LbL deposition would allow controlling the amount of enzyme within the thin film through a facile change in the number of protein deposition steps. To show this, polymer coatings were assembled using one or three layers of adsorbed β-Glu keeping the total number of polymer layers constant. […] While a single layer of the enzyme achieved a <[…] concentration of the product, three protein layers suffice for a build-up of product concentration to over 30 nM, all achieved under dynamic, constant flow conditions.

HepG2 [1] = assay: Cellular internalization of in situ generated fluorescent product, flow cytometry (FIG. 4); assay type: cell-based; conditions: for levels of cellular fluorescence (cargo internalization): enzyme in μS PVA hydrogel, versus solution based conversion; for levels of cellular fluorescence (cargo internalization) / fluorescence of cultured cells: 2.5 μg/mL, 24 h; for fluorescence of cultured cells: prodrug in absence of the enzyme
Experimental: FIG. 4. Utility of SMEPT in generation and cellular internalization of in situ produced product is verified through quantification of fluorescence of hepatic cells cultured on the μS PVA hydrogels. […] Experimental conditions: (A) 1 g/L enzyme in the polymer solution; initial concentration of fluorescein diglucuronide, 2.5 μg/mL; incubation time 24 h; (B) 1 g/L enzyme in the polymer solution; initial concentration of fluorescein diglucuronide 0.25 (top) and 0.025 (bottom) […].
Towards this goal, hydrogels were prepared using solutions of PVA supplemented with a synthetic polypeptide, poly-L-lysine (PLL). […] Enzyme- and PLL-containing PVA hydrogels were assembled as described above, after which time μS thin films were used as substrates for adhesion and proliferation of a model cell line, HepG2. […] Furthermore, advanced efforts in engineering of liver tissue require co-culturing of mammalian cells (e.g. hepatocytes and Kupffer cells), a challenge which is successfully addressed using μS and micro-patterned substrates. These notions together justify the use of a hepatic cell line and μS PVA hydrogels for the development of SMEPT.
Initial, internalization of a fluorescent reporter molecule produced via SMEPT and via a solution-based conversion was compared. To achieve this, the cells were seeded on μS PVA hydrogels and were allowed 24 h for attachment, after which time the media was changed to fresh media and, for solution based prodrug conversion, equivalent amount of the enzyme as that contained within μS PVA hydrogels was administered to the cultured cells. At this point, the samples were charged with fluorescein di-glucuronide to a 2.5 μg/mL concentration (3.65 μM). Upon 24 h incubation, fluorescence of the harvested cells was quantified using flow cytometry. […] We note that solution based prodrug conversion is used herein only as a measure to verify protein activity and utility of SMEPT. In the human body, β-glucuronidase has a limited spread and an activity markedly lower as compared to bacterial copy used in this study. The latter notion provides for a low level of “background” prodrug conversion and contributes to specificity of drug delivery achieved with the use of β-glucuronidase and glucuronide prodrugs, as documented for ADEPT and inherited by SMEPT.
For further characterization of SMEPT, the time course of cellular internalization of the in situ generated fluorescent reporter product was followed at two concentrations of the fluorogenic pro-drug, 0.025 and 0.25 μg/mL (36.5 and 365 nM, respectively). At specified time points, fluorescence of the detached cells was quantified using flow cytometry, FIG. 19B. […] Further to this, at each time point, higher pro-drug concentration affords a higher level of fluorescence registered in the cultured cells, i.e. a greater amount of internalized cargo. Together, these two graphs present time- and dose-dependent internalization of reporter cargo and illustrate the tools of control offered by SMEPT for substrate mediated drug delivery.

b-Galactosidase = tested on: b-Galactosidase
Experimental: Microstructured PVA hydrogels were assembled using polymer solutions containing b-Galactosidase (1 g/L), stabilized using 0.5 M sodium sulfate and incubated in PBS for 1 h prior analysis. We used a substrate for b-Gal conversion of which affords nitric oxide (NO), a potent and multi-functional signaling and therapeutic molecule. This radical—molecule has a very short half-life and is rapidly converted into nitrite/nitrate, and the latter are conventionally used to quantify the levels of generated nitric oxide. Analysis of nitrite is conducted via a Griess assay, i.e. a colorimetric test establishing a linear correlation between the concentration of nitrite and absorbance at 530 nm; cf. FIG. 31.
b-Gal-NONOate was administered onto the enzyme-functionalized hydrogels at varied concentrations and incubated for 30 min, upon which the levels of […] were quantified via the Griess assay.

HepG2 [2] = assay: Cell viability in three sequentially connected perfusion chambers, site-specific delivery (FIG. 25); assay type: cell-based; conditions: for viability of cells reduced to: 1 μM, 4 h flow, further 48 h culture
Source text: For the evaluation of drug delivery to subsequent chambers tubings were connected so that the flow of solution would enter the first chamber containing PEMs with enzyme and subsequent flow to chamber 2 and chamber 3 with cell culture on TCPS.
It is assumed that when the drug is synthesized within the coating immediately underneath the cultured cells, through increased local concentration of the drug, the synthesized therapeutic would exert a higher local effect in adhering cells as compared to the cells growing “downstream”. […] Outlet from chamber 1 was connected to the inlet for chamber 2, and in turn, outlet of chamber 2 was connected to the inlet of chamber 3. Hepatocytes were seeded in all three chambers, but only the cells in chamber 1 were cultured on biocatalytic coatings. Solution of SN-38 glucuronide (1 μM in cell culture media) was administered to the interconnected perfusion chambers at constant shear stress for 4 h. Subsequently, the perfusion chambers were flushed with (pro)drug-free media and the cells were cultured for a further 48 h, prior to the assessment of the cell viability.
The viability of cells cultured on biocatalytic coatings was reduced to ˜30% verifying a pronounced therapeutic response achieved via SMEPT under flow conditions. Viability of cells in chamber two was reduced to ˜60% thus being much higher than that for cells cultured on biocatalytic coatings. Taking into account dose response of HepG2 cells to SN-38, viability difference between 30% and 60% corresponds to ˜10-fold difference in the concentration of the drug used for the treatment. […] It is therefore highly likely that local therapeutic effect would exceed that at “downstream” location to a greater extent than illustrated in FIG. 25. Our data provide experimental proof of the site-specific drug delivery achieved via SMEPT and thus, illustrate therapeutic advantage associated with this technique.

HepG2 [3] = conditions: previously shown by the applicants; cited from earlier work
HepG2 [4] = tested on: HepG2
Experimental: (§1) Cell Culture. The hepatocellular carcinoma cell line (HepG2) was used for all cell experiments. HEPG2 were cultured in a 75 cm^2 culture flask (3E6 cells/flask) in 10 mL medium (Minimum Essential Medium Eagle (MEME) supplemented with 10% fetal bovine serum (FCB), 1% penicillin and streptomycin, 1% non-essential amino acids, and 2 mM L-glutamine) and incubated at 37° C. and 5% CO2.

HepG2 [5] = assay: SMEPT using static cell culture on LbL films, PrestoBlue cell viability (FIG. 21)
Experimental: Glass cover-slips. LbL assembly of PMA and PLL with incorporated enzyme was performed on glass cover-slips to evaluate the therapeutic effect of SN-38 under static conditions. Glass cover slips of 9 mm were sonicated in ethanol for 10 minutes, rinsed with ultrapure water, and dried with argon prior to UV sterilization for 20 minutes in a 48 well plate. Solutions of PLL and PMA, were incubated at 37° C. for 10 min prior to film assembly. Alternating layers were composed as (PLL/PMA)2.5-b-glucuronidase-(PMA/PLL)2 or […] for films without enzyme. Each layer was allowed to adsorb for 10 min at 37° C. followed by a washing step in HEPES buffer. The enzyme b-glucuronidase was added at a concentration of 20 μg/mL in HEPES buffer solution.
as §1
Static cell culture. The LbL coated glass slides were UV sterilized for 10 minutes prior to cell seeding. HepG2 cells with a starting density of 75.000 cells in 300 μL were seeded per well. The cells were allowed to adhere overnight before adding the (pro)drug SN-38 of 1 μM and incubate for 48 h. 200 μL of fresh media was added together with 20 μL of PrestoBlue cell viability reagent and evaluated on an EnspireMultilabel Plate Reader after 30 minutes of incubation.
A glucuronide prodrug of a commercial anticancer drug, SN-38, was used. […] Further, hepatocellular carcinoma (HCC) is a condition successfully addressed using tools for localized drug delivery, but solitary drugs are currently accommodated for this mode of delivery.
Hepatocytes were seeded on the biocatalytic film (PLL/PMA)2.5/β-Glu/(PGA/PMA)2 and allowed to adhere overnight before refreshing the media and adding the (pro)drug at 1 μM.

cells cultured on μS PVA = assay: Viability of cells on μS PVA hydrogels with enzyme and/or prodrug (FIG. 17); assay type: cell-based; conditions: full SMEPT conditions: μS PVA with immobilized enzyme and 1 μM SN-38 glucuronide
Source text: FIG. 17: Viability of cells on μS hydrogels with enzyme and/or prodrug.

T1 sequence (P05804 whole entry, the tested form may be a part): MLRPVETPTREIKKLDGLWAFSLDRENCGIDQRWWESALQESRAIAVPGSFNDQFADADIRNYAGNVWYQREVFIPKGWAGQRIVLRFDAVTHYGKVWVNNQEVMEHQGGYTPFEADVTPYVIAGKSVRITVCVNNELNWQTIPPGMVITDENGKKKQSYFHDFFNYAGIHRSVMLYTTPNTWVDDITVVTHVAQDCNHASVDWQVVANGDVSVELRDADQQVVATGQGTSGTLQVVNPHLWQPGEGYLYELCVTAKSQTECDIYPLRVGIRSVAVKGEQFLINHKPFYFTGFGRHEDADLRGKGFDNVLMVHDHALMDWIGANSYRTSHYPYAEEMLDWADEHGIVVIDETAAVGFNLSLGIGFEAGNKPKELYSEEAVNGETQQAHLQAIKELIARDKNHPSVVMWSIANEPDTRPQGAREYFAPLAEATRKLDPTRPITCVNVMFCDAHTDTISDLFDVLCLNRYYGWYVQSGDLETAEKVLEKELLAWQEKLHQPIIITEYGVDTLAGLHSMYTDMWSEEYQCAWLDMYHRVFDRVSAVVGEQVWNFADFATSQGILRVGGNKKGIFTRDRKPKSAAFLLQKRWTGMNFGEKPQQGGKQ

In the case of O=C1OC2(c3ccc(O[C@@H]4O[C@H](C(=O)O)[C@@H](O)[C@H](O)[C@H]4O)cc3Oc3cc(O[C@@H]4O[C@H](C(=O)O)[C@@H](O)[C@H](O)[C@H]4O)ccc32)c2ccccc21 [fluorescein di-glucuronide], the “amount of product synthesized in unit time, 3 versus 1 layers of adsorbed protein” value (b-glucuronidase; identical prodrug concentration) is reported as “approximately 3 ×”, the “concentration of the product” value (b-glucuronidase; single layer of the enzyme) is reported as < 10 nm and the “concentration of the product” value (b-glucuronidase; three protein layers) is reported as “over 30 nM”. For the same compound, the “fluorescence of cells over time” value (HepG2 [1]; SMEPT, 0.025 and 0.25 μg/mL, earliest time-point 1 h) was “pronounced increase in the fluorescence of cells”, the “levels of cellular fluorescence (cargo internalization)” value (HepG2 [1]; SMEPT) was “comparable to that produced by a solution based administration” and the “levels of cellular fluorescence (cargo internalization)” value (HepG2 [1]; SMEPT, listed as fluorescein diglucuronide) was “comparable levels of fluorescence of cultured cells”. For the same compound, the “fluorescence of cultured cells” value (HepG2 [1]) was “fluorescence identical to pristine, non-treated cells” and the “fluorescence of cultured cells” value (HepG2 [1]; listed as fluorescein diglucuronide) was “negligible change in the fluorescence of cultured cells”.
With [O-]/[N+](=N\O[C@@H]1O[C@H](CO)[C@H](O)[C@H](O)[C@H]1O)N1CCCC1 [b-Gal-NONOate] the “prodrug conversion/drug production of NO” value (b-Galactosidase; absence of enzyme) was “no prodrug conversion/drug production of NO is observed” and the administered dose converted (b-Galactosidase; within 30 min of incubation, b-Galactosidase PVA hydrogels) was “approximately 50%”.
For CCc1c2c(nc3ccc(O[C@@H]4O[C@H](C(=O)O)[C@@H](O)[C@H](O)[C@H]4O)cc13)-c1cc3c(c(=O)n1C2)COC(=O)[C@]3(O)CC [SN-38 glucuronide], the “viability of cells reduced to” value (HepG2 [2]; chamber 1, cells on biocatalytic coatings) is listed as ~30%, the “viability of cells reduced to” value (HepG2 [2]; chamber two, downstream, no biocatalytic coating) is listed as ~60% and the “inherent cytotoxic effects on hepatocytes” value (HepG2 [3]) is listed as “did not have an inherent cytotoxic effects on hepatocytes”. For the same compound, the “decrease in cell viability by” value (HepG2 [4]; 1 μM, 4 h flow on biocatalytic film, then static drug-free culture, total 48 h, normalized to cells without (pro)drug) was ~70%, the “cell viability reduced by” value (HepG2 [5]; SMEPT: hepatocytes on β-Glu-containing LbL film, 1 μM, 48 h incubation, compared to control) was ~80% and the “change in cell viability” value (HepG2 [5]; prodrug on (PLL/PMA)4.5 coatings, no enzyme incorporated, 1 μM, 48 h) was “minor albeit statistically significant decrease in the cell viability”. The “reduction in viability of the hepatocytes compared with SMEPT” value (HepG2 [5]; solution based EPT: prodrug and enzyme both in solution, enzyme-free LbL films, 1 μM, 48 h) was “similar” and the “cytotoxic effect (viability of cells)” value (cells cultured on μS PVA) was “cytotoxic effect which is comparable to the active drug SN-38”.
With CCc1c2c(nc3ccc(O)cc13)-c1cc3c(c(=O)n1C2)COC(=O)[C@]3(O)CC [SN-38] the “difference in the concentration of the drug corresponding to viability difference between 30% and 60%” value (HepG2 [2]; from dose response of HepG2 cells to SN-38) was ~10 fold, the “cell culture time required for a well-pronounced therapeutic effect” value (HepG2 [4]) was “at least 48 h” and the “time the presence of the drug was required for a pronounced therapeutic effect” value (HepG2 [4]) was ≥ 4 h. The “reduction in viability of the hepatocytes compared with SMEPT” value (HepG2 [5]) was “similar”.
